Legend:
[1] = system: Mtb CF 184 (mono-resistant to isoniazid); type: cell-based, Mycobacterium tuberculosis; details: Mono INH clinical isolate; REMA, 7 days
[2] = system: Mtb CF 44 (mono-resistant to isoniazid); type: cell-based, Mycobacterium tuberculosis; details: Mono INH clinical isolate; REMA, 7H9 + 10% OADC, 7 days

Compound | CIM90 CF 184 [1] | CIM90 CF 44 [2]
NCC[C@H](O)C(=O)N[C@@H]1C[C@H](N)[C@@H](O[C@H]2O[C@H](CN)[C@@H](O)[C@H](O)[C@H]2O)[C@H](O)[C@H]1O[C@H]1O[C@H](CO)[C@@H](O)[C@H](N)[C@H]1O [AMK, amikacin] | 0,24 ± 0,00 μM | 1,48 ± 1,12 μM
O=C(Nc1ccc(N2CCSCC2)c(F)c1)c1ccc2no[n+]([O-])c2c1 [Compound 5b] | 0,37 ± 0,15 μM | 0,52 ± 0,09 μM
O=C(Nc1ccc(N2CCN(c3ccccn3)CC2)c(F)c1)c1ccc2no[n+]([O-])c2c1 [Compound 5n] | 0,96 ± 1,04 μM | 4,71 ± 3,11 μM
NNC(=O)c1ccncc1 [INH, isoniazid] | > 182,30 μM | > 182,30 μM
CO[C@H]1/C=C/O[C@@]2(C)Oc3c(C)c(O)c4c(O)c(c(/C=N/N5CCN(C)CC5)c(O)c4c3C2=O)NC(=O)/C(C)=C\C=C\[C@H](C)[C@H](O)[C@@H](C)[C@@H](O)[C@@H](C)[C@H](OC(C)=O)[C@@H]1C [RFP, rifampicin] | 0,05 ± 0,01 μM | 0,05 ± 0,01 μM
